Data on 22 compounds can be found in patent US9751888B2, “Heterocyclic compounds and uses thereof” (Infinity Pharmaceuticals, Inc., priority 2013, dated 2017).

What is called IC50 is the concentration that gives 50% inhibition.

Experiment [1] addresses human Class I PI3 kinase β (Homo sapiens (Human), UniProt P42338). In words: PI3-Kinase Promega ADP-Glo Max assay, β isoform. The class given is biochemical. The settings on record: 40 nM kinase, 3 mM ATP, 500 uM diC8-PtdInsP; read-out: Promega β PI3K IC50.
Procedure: Promega ADP-Glo Max assay kit (Cat. No. V7002) was utilized to determine IC50 values for α, β, δ and γ isoforms of human Class I PI3 kinases (Millipore). […] Reactions were incubated at room temperature for 2 hours followed by addition of 25 uL of stop solution. After a 40-minute incubation at room temperature, 50 uL of Promega detection mix was added followed by incubation for 1 hour at room temperature. Plates were then read on Envision plate reader in luminescence mode. Data was converted to % inhibition using the following equation below:
Experiment [2] addresses p110 δ (RAJI cells) (Homo sapiens (Human), UniProt O00329). Kind of experiment: PI3K-δ selective cellular assay: phospho-AKT in anti-human IgM stimulated RAJI cells. The class given is cell-based. To be noted: serum-starved RAJI cells stimulated with anti-human IgM. The text has this: A compound's ability in selectively inhibiting PI3K-δ can be assessed using RAJI cells, i.e., B lymphocyte cells derived from lymphoma patients. Briefly, serum-starved RAJI cells are stimulated with anti-human IgM, thereby causing signaling through the B-cell receptors, as described in, for example, He et al., Leukemia Research (2009) 33: 798-802. B-cell receptor signaling is important for the activation, differentiation, and survival of B cells and certain B-cell derived cancers. Reduction of phospho-AKT is indicative of compounds that may inhibit B-cell proliferation and function in certain diseases. […] Certain compounds provided herein were tested in RAJI cell model using procedures as described above.

The target in experiment [3] is human Class I PI3 kinase γ (Homo sapiens (Human), UniProt P48736). In words: PI3-Kinase Promega ADP-Glo Max assay, γ isoform. The experiment is classed as biochemical. The settings on record: 40 nM kinase, 3 mM ATP, 500 uM diC8-PtdInsP; read-out: Promega γ PI3K IC50. On the procedure:
Promega ADP-Glo Max assay kit (Cat. No. V7002) was utilized to determine IC50 values for α, β, δ and γ isoforms of human Class I PI3 kinases (Millipore). Samples of kinase (20 nM α or δ, 40 nM β or γ isoform) were incubated with compound for 15 minutes at room temperature in reaction buffer (15 mM HEPES pH 7.4, 20 mM NaCl, 1 mM EGTA, 0.02% Tween 20, 10 mM MgCl2, 0.2 mg/mL bovine-γ-globulins) followed by addition of ATP/diC8-PtdInsP mixture to give final concentrations of 3 mM ATP and 500 uM diC8-PtdInsP. Reactions were incubated at room temperature for 2 hours followed by addition of 25 uL of stop solution. After a 40-minute incubation at room temperature, 50 uL of Promega detection mix was added followed by incubation for 1 hour at room temperature. Plates were then read on Envision plate reader in luminescence mode. Data was converted to % inhibition using the following equation below:
[formula] where S is the sample luminescence, Pos is a positive control without added PI3K, Neg is the negative control without added compound. Data was then plotted as % inhibition vs compound concentration.
Certain compounds provided herein were tested in PI3-Kinase Promega Assay using procedures as described above to determine IC50 values for α, β, δ and/or γ isoforms.
A general note: ADP-Glo first removes unused ATP, then detects ADP through luciferase.

For experiment [4], the target named is human Class I PI3 kinase α (Homo sapiens (Human), UniProt P42336). Kind of experiment: PI3-Kinase Promega ADP-Glo Max assay, α isoform. To be noted: 20 nM kinase, 3 mM ATP, 500 uM diC8-PtdInsP; read-out: Promega α PI3K IC50. The class given is biochemical.
Procedure: (§1) Promega ADP-Glo Max assay kit (Cat. No. V7002) was utilized to determine IC50 values for α, β, δ and γ isoforms of human Class I PI3 kinases (Millipore). […] Reactions were incubated at room temperature for 2 hours followed by addition of 25 uL of stop solution. After a 40-minute incubation at room temperature, 50 uL of Promega detection mix was added followed by incubation for 1 hour at room temperature. Plates were then read on Envision plate reader in luminescence mode. Data was converted to % inhibition using the following equation below: [formula] where S is the sample luminescence, Pos is a positive control without added PI3K, Neg is the negative control without added compound. Data was then plotted as % inhibition vs compound concentration.
In experiment [5] the target is human Class I PI3 kinase δ (Homo sapiens (Human), UniProt O00329). In words: PI3-Kinase Promega ADP-Glo Max assay, δ isoform. The class given is biochemical. The settings on record: 20 nM kinase, 3 mM ATP, 500 uM diC8-PtdInsP; read-out: Promega δ PI3K IC50.
Procedure: as §1
Experiment [6] deals with p110 γ (RAW264.7 cells) (Mus musculus (Mouse), UniProt Q9JHG7). In words: PI3K-γ selective cellular assay: phospho-AKT in C5a stimulated RAW264.7 macrophages. The class given is cell-based. The settings on record: serum-starved RAW264.7 cells stimulated with C5a. How it is done: Certain compounds provided herein were tested in RAW 264.7 cell model using procedures as described above.
Sequence of p110 γ (RAW264.7 cells) (Q9JHG7 whole entry): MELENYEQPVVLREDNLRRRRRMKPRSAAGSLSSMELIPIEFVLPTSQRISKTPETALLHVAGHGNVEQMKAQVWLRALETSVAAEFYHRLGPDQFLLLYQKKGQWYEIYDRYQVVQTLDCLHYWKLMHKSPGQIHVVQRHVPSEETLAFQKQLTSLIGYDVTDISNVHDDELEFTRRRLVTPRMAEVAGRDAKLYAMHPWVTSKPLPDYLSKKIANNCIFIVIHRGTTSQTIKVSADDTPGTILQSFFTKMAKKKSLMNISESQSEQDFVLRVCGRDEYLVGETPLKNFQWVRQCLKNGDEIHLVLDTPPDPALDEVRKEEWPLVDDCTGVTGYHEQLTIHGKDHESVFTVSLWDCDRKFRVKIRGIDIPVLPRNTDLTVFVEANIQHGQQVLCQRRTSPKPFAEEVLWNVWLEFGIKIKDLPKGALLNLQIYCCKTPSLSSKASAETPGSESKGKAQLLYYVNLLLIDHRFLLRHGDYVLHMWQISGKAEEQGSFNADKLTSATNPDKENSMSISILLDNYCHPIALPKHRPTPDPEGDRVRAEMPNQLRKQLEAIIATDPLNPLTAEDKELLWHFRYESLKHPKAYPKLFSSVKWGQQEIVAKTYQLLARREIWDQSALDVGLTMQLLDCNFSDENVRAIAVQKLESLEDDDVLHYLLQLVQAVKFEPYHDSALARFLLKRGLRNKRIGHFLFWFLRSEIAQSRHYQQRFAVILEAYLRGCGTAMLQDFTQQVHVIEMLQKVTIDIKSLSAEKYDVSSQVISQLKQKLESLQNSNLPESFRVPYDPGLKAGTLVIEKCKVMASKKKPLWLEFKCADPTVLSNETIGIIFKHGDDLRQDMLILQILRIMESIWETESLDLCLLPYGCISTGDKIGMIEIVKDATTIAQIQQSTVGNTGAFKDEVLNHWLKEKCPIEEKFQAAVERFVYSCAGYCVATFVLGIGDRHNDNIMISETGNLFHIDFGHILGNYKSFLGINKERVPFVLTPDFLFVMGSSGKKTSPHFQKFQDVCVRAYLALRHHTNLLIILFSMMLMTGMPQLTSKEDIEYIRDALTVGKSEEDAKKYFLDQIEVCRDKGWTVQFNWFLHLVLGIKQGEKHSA

Sequence of human Class I PI3 kinase β (P42338 whole entry, looked up, canonical isoform): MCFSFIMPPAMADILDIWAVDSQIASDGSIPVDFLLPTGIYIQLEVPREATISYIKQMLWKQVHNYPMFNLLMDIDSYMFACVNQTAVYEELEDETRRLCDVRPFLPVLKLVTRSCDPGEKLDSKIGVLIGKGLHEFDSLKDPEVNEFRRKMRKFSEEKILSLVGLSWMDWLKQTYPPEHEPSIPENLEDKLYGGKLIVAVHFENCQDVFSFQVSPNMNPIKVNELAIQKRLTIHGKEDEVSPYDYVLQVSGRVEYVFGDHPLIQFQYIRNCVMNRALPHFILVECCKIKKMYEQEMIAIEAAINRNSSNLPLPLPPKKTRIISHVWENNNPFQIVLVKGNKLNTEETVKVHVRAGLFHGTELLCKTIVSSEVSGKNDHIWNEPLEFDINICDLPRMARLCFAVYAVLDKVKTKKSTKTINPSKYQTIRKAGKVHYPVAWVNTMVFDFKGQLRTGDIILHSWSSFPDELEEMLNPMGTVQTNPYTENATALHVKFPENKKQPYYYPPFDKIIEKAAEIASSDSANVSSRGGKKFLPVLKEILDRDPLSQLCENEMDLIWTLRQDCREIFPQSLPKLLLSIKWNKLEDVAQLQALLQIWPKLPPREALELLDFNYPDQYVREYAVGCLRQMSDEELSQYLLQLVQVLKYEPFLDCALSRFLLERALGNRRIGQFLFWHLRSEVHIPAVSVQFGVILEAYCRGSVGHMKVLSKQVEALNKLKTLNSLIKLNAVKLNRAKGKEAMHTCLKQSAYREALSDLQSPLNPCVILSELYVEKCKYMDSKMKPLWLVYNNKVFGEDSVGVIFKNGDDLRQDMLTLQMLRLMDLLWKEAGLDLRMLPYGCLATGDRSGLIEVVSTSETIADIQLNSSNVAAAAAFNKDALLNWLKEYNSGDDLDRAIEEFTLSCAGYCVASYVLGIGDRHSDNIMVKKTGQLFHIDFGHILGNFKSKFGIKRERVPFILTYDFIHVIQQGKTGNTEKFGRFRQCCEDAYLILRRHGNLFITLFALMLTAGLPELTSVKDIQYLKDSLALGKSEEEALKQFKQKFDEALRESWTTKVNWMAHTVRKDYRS
Sequence of human Class I PI3 kinase β (P27986 whole entry partner, looked up, canonical isoform): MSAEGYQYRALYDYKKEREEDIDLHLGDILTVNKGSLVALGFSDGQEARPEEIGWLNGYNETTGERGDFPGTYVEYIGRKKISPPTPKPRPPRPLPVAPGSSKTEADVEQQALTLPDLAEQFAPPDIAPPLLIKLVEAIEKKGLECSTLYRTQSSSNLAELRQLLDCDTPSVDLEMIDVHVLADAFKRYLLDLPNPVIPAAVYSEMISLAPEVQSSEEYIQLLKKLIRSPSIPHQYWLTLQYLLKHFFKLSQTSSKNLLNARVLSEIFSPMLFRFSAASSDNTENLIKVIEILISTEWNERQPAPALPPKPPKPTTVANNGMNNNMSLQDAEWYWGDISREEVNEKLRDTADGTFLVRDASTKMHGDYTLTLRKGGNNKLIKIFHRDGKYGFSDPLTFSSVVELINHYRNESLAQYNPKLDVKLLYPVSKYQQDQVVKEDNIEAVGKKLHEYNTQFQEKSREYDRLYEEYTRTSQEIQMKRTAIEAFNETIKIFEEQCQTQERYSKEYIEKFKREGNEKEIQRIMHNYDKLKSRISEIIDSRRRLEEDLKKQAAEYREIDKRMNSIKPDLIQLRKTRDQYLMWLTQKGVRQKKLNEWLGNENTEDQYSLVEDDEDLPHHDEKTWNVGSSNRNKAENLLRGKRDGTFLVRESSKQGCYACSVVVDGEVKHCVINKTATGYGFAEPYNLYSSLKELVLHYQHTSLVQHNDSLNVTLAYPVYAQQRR
Sequence of human Class I PI3 kinase γ (P48736 whole entry, canonical isoform): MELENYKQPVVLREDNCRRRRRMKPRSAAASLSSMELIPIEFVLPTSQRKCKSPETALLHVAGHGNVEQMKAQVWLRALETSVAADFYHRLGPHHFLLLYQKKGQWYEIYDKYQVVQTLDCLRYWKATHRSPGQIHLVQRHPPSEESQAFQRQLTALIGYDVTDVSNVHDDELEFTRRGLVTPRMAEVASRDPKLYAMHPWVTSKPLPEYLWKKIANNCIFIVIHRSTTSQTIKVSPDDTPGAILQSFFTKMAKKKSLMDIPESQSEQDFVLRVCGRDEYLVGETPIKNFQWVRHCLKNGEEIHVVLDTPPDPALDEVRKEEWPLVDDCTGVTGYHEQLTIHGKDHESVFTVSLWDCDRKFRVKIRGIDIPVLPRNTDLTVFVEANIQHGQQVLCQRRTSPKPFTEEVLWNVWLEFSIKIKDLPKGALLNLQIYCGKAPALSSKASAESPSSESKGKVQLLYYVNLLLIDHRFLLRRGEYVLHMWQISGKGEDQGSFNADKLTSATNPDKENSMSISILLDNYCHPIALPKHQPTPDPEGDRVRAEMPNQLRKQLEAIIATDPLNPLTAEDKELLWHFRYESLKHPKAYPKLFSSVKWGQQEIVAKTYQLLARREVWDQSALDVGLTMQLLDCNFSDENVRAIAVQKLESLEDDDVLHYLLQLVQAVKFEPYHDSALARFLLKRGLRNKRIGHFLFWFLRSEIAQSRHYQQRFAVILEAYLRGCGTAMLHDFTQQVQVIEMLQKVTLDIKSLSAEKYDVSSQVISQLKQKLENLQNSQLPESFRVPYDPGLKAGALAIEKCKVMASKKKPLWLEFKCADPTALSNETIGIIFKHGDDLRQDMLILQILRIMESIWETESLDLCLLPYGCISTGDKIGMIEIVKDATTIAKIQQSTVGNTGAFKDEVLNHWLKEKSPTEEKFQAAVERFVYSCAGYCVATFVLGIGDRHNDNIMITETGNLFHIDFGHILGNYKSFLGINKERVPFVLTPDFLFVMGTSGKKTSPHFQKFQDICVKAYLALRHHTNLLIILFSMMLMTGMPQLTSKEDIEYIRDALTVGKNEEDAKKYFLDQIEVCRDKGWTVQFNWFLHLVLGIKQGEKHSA
Sequence of human Class I PI3 kinase α (P42336 whole entry, canonical isoform): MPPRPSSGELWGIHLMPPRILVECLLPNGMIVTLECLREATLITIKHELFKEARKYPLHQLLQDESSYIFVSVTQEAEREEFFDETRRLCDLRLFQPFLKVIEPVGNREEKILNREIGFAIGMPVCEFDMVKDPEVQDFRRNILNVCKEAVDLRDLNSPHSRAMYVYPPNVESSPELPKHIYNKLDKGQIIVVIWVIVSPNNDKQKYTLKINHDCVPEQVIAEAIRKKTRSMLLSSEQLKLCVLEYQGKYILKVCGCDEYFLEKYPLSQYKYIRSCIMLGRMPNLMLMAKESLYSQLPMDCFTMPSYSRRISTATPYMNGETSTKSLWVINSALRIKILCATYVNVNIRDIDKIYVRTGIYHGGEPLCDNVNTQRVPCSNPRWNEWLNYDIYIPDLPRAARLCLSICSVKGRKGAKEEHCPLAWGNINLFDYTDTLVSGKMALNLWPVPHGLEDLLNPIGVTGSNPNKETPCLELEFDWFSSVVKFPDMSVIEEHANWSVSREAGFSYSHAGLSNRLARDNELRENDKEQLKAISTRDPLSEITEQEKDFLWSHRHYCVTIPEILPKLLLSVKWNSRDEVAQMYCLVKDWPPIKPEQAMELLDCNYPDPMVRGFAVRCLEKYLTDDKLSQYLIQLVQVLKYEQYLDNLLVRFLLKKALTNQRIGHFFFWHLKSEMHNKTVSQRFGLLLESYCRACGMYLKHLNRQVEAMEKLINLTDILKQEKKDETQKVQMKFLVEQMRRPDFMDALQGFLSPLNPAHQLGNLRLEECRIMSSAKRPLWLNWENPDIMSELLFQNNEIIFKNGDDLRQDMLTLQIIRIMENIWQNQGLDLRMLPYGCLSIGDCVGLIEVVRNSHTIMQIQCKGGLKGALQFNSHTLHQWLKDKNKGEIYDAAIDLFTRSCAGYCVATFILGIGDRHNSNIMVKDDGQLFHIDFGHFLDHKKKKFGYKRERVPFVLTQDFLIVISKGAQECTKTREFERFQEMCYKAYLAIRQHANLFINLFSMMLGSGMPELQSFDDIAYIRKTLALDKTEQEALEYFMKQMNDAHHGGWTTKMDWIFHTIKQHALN
Sequence of human Class I PI3 kinase α (P27986 whole entry partner, canonical isoform): as the sequence (P27986 whole entry partner, looked up, canonical isoform) above

On to `C[C@H](NC(=O)c1c(N)nn2cccnc12)c1cc2cccc(Cl)c2c(=O)n1CCc1ncn[nH]1` [Compound 20], for which the IC50 lay within 500 to 1000 nM in experiment [1]; 10 to 100 nM in experiment [2]; 500 to 1000 nM in experiment [3]; 1000 to 10000 nM in experiment [4]; 1000 to 10000 nM in experiment [5]; 1000 to 10000 nM in experiment [6].
In the case of `CC(C)C(=O)Cc1cccc2cc([C@H](C)NC(=O)c3c(N)nn4cccnc34)n(-c3ccccc3)c(=O)c12` [Compound 65], the half-inhibitory concentration (IC50) in experiment [1] fell in the range of 1000 to 10000 nM; in experiment [2], 100 to 500 nM; in experiment [3], 1000 to 10000 nM; in experiment [4], 1000 to 10000 nM; in experiment [5], 1000 to 10000 nM; in experiment [6] it was 10 to 100 nM.
With `C[C@H](NC(=O)c1nc(C2CC2)cnc1N)c1cc2cccc(Cl)c2c(=O)n1-c1ccccc1` [Compound 3], the concentration for half-maximal inhibition (IC50) in experiment [1], in experiment [3], in experiment [4] and in experiment [5] was 1000 to 10000 nM in each case.
For the compound `C[C@H](NC(=O)c1c(N)nn2cccnc12)c1cc2cccc(Cl)c2c(=O)n1CCS(N)(=O)=O` [Compound 19], the IC50 in experiment [1] is 100 to 500 nM; in experiment [2] it was 10 to 100 nM; in experiment [3], 10 to 100 nM; in experiment [4], 1000 to 10000 nM; in experiment [5] it was 1000 to 10000 nM; in experiment [6] it was 10 to 100 nM.
As for `C[C@H](NC(=O)c1c(N)nn2cccnc12)c1cc2cccc(Cl)c2c(=O)n1-c1ccc(O)cc1` [Compound 70], the IC50 was 1 to 10 nM in experiment [1]; 1 to 10 nM in experiment [2]; 10 to 100 nM in experiment [3]; 1000 to 10000 nM in experiment [4]; 100 to 500 nM in experiment [5]; 10 to 100 nM in experiment [6].
For the compound `C[C@H](NC(=O)c1c(N)nn2cccnc12)c1cc2cccc(Cl)c2c(=O)n1-c1cccnc1` [Compound 76], the IC50 in experiment [1] lay in the range of 500 to 1000 nM; in experiment [2], 100 to 500 nM; in experiment [3] it was 100 to 500 nM; in experiment [4], 1000 to 10000 nM; in experiment [5], 1000 to 10000 nM; in experiment [6], 10 to 100 nM.
For the compound `C[C@H](NC(=O)c1c(N)nn2cccnc12)c1cc2cccc(Cl)c2c(=O)n1CCc1nnn[nH]1` [Compound 16], the IC50 was in the range of 1000 to 10000 nM in experiment [1]; 1000 to 10000 nM in experiment [2]; 10 to 100 nM in experiment [3]; 1000 to 10000 nM in experiment [4]; 1000 to 10000 nM in experiment [5]; 500 to 1000 nM in experiment [6].
For the compound `C[C@H](NC(=O)c1c(N)nn2cccnc12)c1cc2cccc(Cl)c2c(=O)n1-c1cccc(NS(C)(=O)=O)c1` [Compound 79], the concentration for half-maximal inhibition (IC50) was 100 to 500 nM in experiment [1]; 10 to 100 nM in experiment [2]; 100 to 500 nM in experiment [3]; 1000 to 10000 nM in experiment [4]; 500 to 1000 nM in experiment [5]; 100 to 500 nM in experiment [6].
Regarding `CCn1cc(-c2cccc3cc([C@H](C)NC(=O)c4c(N)nn5cccnc45)n(-c4ccccc4)c(=O)c23)cn1` [Compound 5], the IC50 in experiment [1] was 1000 to 10000 nM; in experiment [2], 100 to 500 nM; in experiment [3] it was 100 to 500 nM; in experiment [4], 1000 to 10000 nM; in experiment [5] it was 1000 to 10000 nM; in experiment [6], 10 to 100 nM.
With `C[C@H](NC(=O)c1c(N)nn2cccnc12)c1cc2cccc(Cl)c2c(=O)n1CCS(=O)(=O)N(C)C` [Compound 58], the IC50 in experiment [1] is 500 to 1000 nM; in experiment [2], 10 to 100 nM; in experiment [3] it was 10 to 100 nM; in experiment [4], 500 to 1000 nM; in experiment [5] it was 100 to 500 nM; in experiment [6], 1 to 10 nM.
Turning to `Cc1ccnc2c(C(=O)N[C@@H](C)c3cc4cccc(Cl)c4c(=O)n3-c3ccccc3)c(N)nn12` [Compound 82], the IC50 in experiment [1] fell in the range of 1000 to 10000 nM; in experiment [2], 10 to 100 nM; in experiment [3], 500 to 1000 nM; in experiment [4] it was 1000 to 10000 nM; in experiment [5], 1000 to 10000 nM; in experiment [6], 10 to 100 nM.
On to `C[C@H](NC(=O)c1c(N)nn2cccnc12)c1cc2cccc(Cl)c2c(=O)n1CCc1c[nH]cn1` [Compound 21], for which the 50% inhibitory concentration (IC50) lay in the range of 100 to 500 nM in experiment [1], 1000 to 10000 nM in experiment [3], 1000 to 10000 nM in experiment [4] and 1000 to 10000 nM in experiment [5].
`C[C@H](NC(=O)c1c(N)nn2cccnc12)c1cc2cccc(Cl)c2c(=O)n1-c1cccc(S(C)(=O)=O)c1` [Compound 77]: the half-maximal inhibitory concentration (IC50) in experiment [1] lay within 500 to 1000 nM; in experiment [2], 100 to 500 nM; in experiment [3], 500 to 1000 nM; in experiment [4], 1000 to 10000 nM; in experiment [5], 1000 to 10000 nM; in experiment [6], 100 to 500 nM.
`CCS(=O)(=O)NCCn1c([C@H](C)NC(=O)c2c(N)nn3cccnc23)cc2cccc(Cl)c2c1=O` [Compound 61]: the IC50 in experiment [1] is 100 to 500 nM; in experiment [2], 10 to 100 nM; in experiment [3], 10 to 100 nM; in experiment [4], 1000 to 10000 nM; in experiment [5], 100 to 500 nM; in experiment [6], 100 to 500 nM.
In the case of `COc1ccccc1-n1c([C@H](C)NC(=O)c2c(N)nn3cccnc23)cc2cccc(Cl)c2c1=O` [Compound 85], the IC50 is 500 to 1000 nM in experiment [1]; 100 to 500 nM in experiment [2]; 100 to 500 nM in experiment [3]; 1000 to 10000 nM in experiment [4]; 500 to 1000 nM in experiment [5]; 10 to 100 nM in experiment [6].
As to `Cc1cccc2c(=O)n(-c3ccccc3)c([C@H](C)NC(=O)c3c(N)nn4cccnc34)nc12` [Compound 92], the IC50 in experiment [1] lay within 1000 to 10000 nM; in experiment [2] it was 100 to 500 nM; in experiment [3], 1000 to 10000 nM; in experiment [4], 1000 to 10000 nM; in experiment [5], 1000 to 10000 nM; in experiment [6], 100 to 500 nM.
Take `C[C@H](NC(=O)c1nccnc1N)c1cc2cccc(C(F)(F)F)c2c(=O)n1-c1ccccc1` [Compound 52]: the concentration for half-maximal inhibition (IC50) in experiment [1] is 1000 to 10000 nM; in experiment [2], 10 to 100 nM; in experiment [3] it was 500 to 1000 nM; in experiment [4], 1000 to 10000 nM; in experiment [5], 500 to 1000 nM; in experiment [6], 10 to 100 nM.
Consider `C[C@H](NC(=O)c1c(N)nn2cccnc12)c1cc2cccc(Cl)c2c(=O)n1CCc1nnnn1C` [Compound 55], for which the IC50 in experiment [1] lay in the range of 100 to 500 nM; in experiment [2] it was 10 to 100 nM; in experiment [3], 100 to 500 nM; in experiment [4] it was 1000 to 10000 nM; in experiment [5] it was 1000 to 10000 nM; in experiment [6], 100 to 500 nM.
For the compound `C[C@H](NC(=O)c1c(N)nn2cccnc12)c1cc2cccc(Cl)c2c(=O)n1-c1cccc(O)c1` [Compound 69], the IC50 in experiment [1] is 10 to 100 nM; in experiment [2] it was 1 to 10 nM; in experiment [3], 10 to 100 nM; in experiment [4] it was 1000 to 10000 nM; in experiment [5], 100 to 500 nM; in experiment [6] it was 10 to 100 nM.
On to `C[C@H](NC(=O)c1c(N)nn2cccnc12)c1nc2ccc(Cl)cc2c(=O)n1-c1ccccc1` [Compound 88], for which the half-maximal inhibitory concentration (IC50) in experiment [1], in experiment [3], in experiment [4] and in experiment [5] was 1000 to 10000 nM throughout.
Take `C[C@H](NC(=O)c1c(N)nn2cccnc12)c1cc2cccc(CCc3cnn(C)c3)c2c(=O)n1-c1ccccc1` [Compound 66]: the half-maximal inhibitory concentration (IC50) in experiment [2] is 10 to 100 nM; in experiment [3], 500 to 1000 nM; in experiment [6] it was 1 to 10 nM.
Turning to `C[C@H](NC(=O)c1nccnc1N)c1oc2ccc(F)cc2c(=O)c1-c1ccccc1` [Compound 97], the IC50 in experiment [1], in experiment [3], in experiment [4] and in experiment [5] was 1000 to 10000 nM in each case.
